Results: US10597388B2, “Pyridazinone herbicides” (FMC CORPORATION, priority 2014, dated 2020)

Tests used:
Assay in all cases: Test D controlled growth environment herbicide test, pre- and postemergence
Format in all cases: in vivo
[1] = tested on: pigweed (Amaranthus retroflexus)
Summary of the method: (§1)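 Rating is visual, 0–100 scale (100 = complete control), made against untreated plants 14–21 d after treatment in controlled growth conditions. Postemergence sprays went onto 1- to 4-leaf plants in peat medium; preemergence sprays onto silt loam after sowing; formulation included a surfactant.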

[2] = tested on: blackgrass (Alopecurus myosuroides)
Summary of the method: as §1

[3] = tested on: oilseed rape (Brassica napus)
Summary of the method: as §1

[4] = tested on: wheat, spring (spring wheat, Triticum aestivum)
Summary of the method: as §1

[5] = tested on: ryegrass, Italian (Italian ryegrass, Lolium multiflorum)
Summary of the method: as §1

[6] = tested on: radish, wild (wild radish, Raphanus raphanistrum)
Summary of the method: as §1

[7] = tested on: wheat, winter (winter wheat, Triticum aestivum)
Summary of the method: as §1

[8] = tested on: field violet (Viola arvensis)
Summary of the method: as §1

[9] = tested on: windgrass (Apera spica-venti)
Summary of the method: as §1

[10] = tested on: deadnettle (henbit deadnettle, Lamium amplexicaule)
Summary of the method: as §1

[11] = tested on: field poppy (Papaver rhoeas)
Summary of the method: as §1

[12] = tested on: Russian thistle (Salsola kali)
Summary of the method: as §1

[13] = tested on: chickweed (common chickweed, Stellaria media)
Summary of the method: as §1

[14] = Postemergence, 31 g ai/ha, scale 0 to 100 (0 no effect, 100 complete control)
[15] = Postemergence, 125 g ai/ha, visual rating on scale 0 (no effect) to 100 (complete control), 14 to 21 d
[16] = Postemergence, 250 g ai/ha, scale 0 to 100 (0 no effect, 100 complete control)
[17] = Preemergence, 62 g ai/ha, scale 0 to 100 (0 no effect, 100 complete control)
[18] = Preemergence, 125 g ai/ha, scale 0 to 100 (0 no effect, 100 complete control)
[19] = Preemergence, 250 g ai/ha, scale 0 to 100 (0 no effect, 100 complete control)
[20] = postemergence, 62 g ai/ha, scale 0 to 100, 0 no effect, 100 complete control

CC(=O)Oc1c(C)nn(C)c(=O)c1-c1c(C)sc2c(C)cc(C)cc12 [Compound 27]
Pigweed plant response rating [1, 14]: 75 | Plant response rating, Pigweed [1, 15]: 95 | Plant response rating, Pigweed [1, 16]: 95 | Plant response rating (scale of 0 to 100), Pigweed ([1]; Preemergence, 31 g ai/ha): 100 | Plant response rating, Pigweed [1, 17]: 100 | Plant response rating, Pigweed [1, 18]: 100 | Plant response rating, Pigweed [1, 19]: 100 | Plant response rating, Pigweed [1, 20]: 85 | Blackgrass plant response rating [2, 14]: 75 | Plant response rating, Blackgrass [2, 15]: 90 | Plant response rating, Blackgrass [2, 16]: 90 | Plant response rating (scale of 0 to 100), Blackgrass ([2]; Preemergence, 31 g ai/ha): 85 | Plant response rating, Blackgrass [2, 17]: 90 | Plant response rating, Blackgrass [2, 18]: 95 | Blackgrass plant response rating [2, 19]: 100 | Plant response rating, Blackgrass [2, 20]: 80 | Oilseed Rape plant response rating [3, 14]: 55 | Plant response rating, Oilseed Rape [3, 15]: 70 | Plant response rating, Oilseed Rape [3, 16]: 85 | Plant response rating (scale of 0 to 100), Oilseed Rape ([3]; Preemergence, 31 g ai/ha): 0 | Plant response rating, Oilseed Rape [3, 17]: 0 | Plant response rating, Oilseed Rape [3, 18]: 0 | Plant response rating, Oilseed Rape [3, 19]: 35 | Plant response rating, Oilseed Rape [3, 20]: 65 | Wheat, Spring plant response rating [4, 14]: 0 | Plant response rating, Wheat, Spring [4, 15]: 10 | Plant response rating, Wheat, Spring [4, 16]: 20 | Plant response rating (scale of 0 to 100), Wheat, Spring ([4]; Preemergence, 31 g ai/ha): 0 | Plant response rating, Wheat, Spring [4, 17]: 0 | Plant response rating, Wheat, Spring [4, 18]: 5 | Plant response rating, Wheat, Spring [4, 19]: 25 | Plant response rating, Wheat, Spring [4, 20]: 5 | Ryegrass, Italian plant response rating [5, 14]: 80 | Plant response rating, Ryegrass, Italian [5, 15]: 85 | Plant response rating, Ryegrass, Italian [5, 16]: 85 | Plant response rating (scale of 0 to 100), Ryegrass, Italian ([5]; Preemergence, 31 g ai/ha): 90 | Plant response rating, Ryegrass, Italian [5, 17]: 100 | Plant response rating, Ryegrass, Italian [5, 18]: 100 | Plant response rating, Ryegrass, Italian [5, 19]: 100 | Plant response rating, Ryegrass, Italian [5, 20]: 85 | Radish, Wild plant response rating [6, 14]: 65 | Plant response rating, Radish, Wild [6, 15]: 85 | Plant response rating, Radish, Wild [6, 16]: 90 | Plant response rating (scale of 0 to 100), Radish, Wild ([6]; Preemergence, 31 g ai/ha): 0 | Plant response rating, Radish, Wild [6, 17]: 50 | Plant response rating, Radish, Wild [6, 18]: 60 | Plant response rating, Radish, Wild [6, 19]: 95 | Plant response rating, Radish, Wild [6, 20]: 75 | Wheat, Winter plant response rating [7, 14]: 0 | Plant response rating, Wheat, Winter [7, 15]: 5 | Plant response rating, Wheat, Winter [7, 16]: 10 | Plant response rating (scale of 0 to 100), Wheat, Winter ([7]; Preemergence, 31 g ai/ha): 0 | Plant response rating, Wheat, Winter [7, 17]: 0 | Plant response rating, Wheat, Winter [7, 18]: 0 | Plant response rating, Wheat, Winter [7, 19]: 5 | Plant response rating, Wheat, Winter [7, 20]: 5 | Field Violet plant response rating [8, 14]: 75 | Plant response rating, Field Violet [8, 15]: 75 | Plant response rating, Field Violet [8, 16]: 85 | Plant response rating (scale of 0 to 100), Field Violet ([8]; Preemergence, 31 g ai/ha): 80 | Plant response rating, Field Violet [8, 17]: 90 | Plant response rating, Field Violet [8, 18]: 95 | Plant response rating, Field Violet [8, 19]: 95 | Plant response rating, Field Violet [8, 20]: 70 | Windgrass plant response rating [9, 14]: 75 | Plant response rating, Windgrass [9, 15]: 80 | Plant response rating, Windgrass [9, 16]: 90 | Plant response rating (scale of 0 to 100), Windgrass ([9]; Preemergence, 31 g ai/ha): 75 | Plant response rating, Windgrass [9, 17]: 85 | Plant response rating, Windgrass [9, 18]: 100 | Plant response rating, Windgrass [9, 19]: 100 | Plant response rating, Windgrass [9, 20]: 75 | Deadnettle plant response rating [10, 14]: 5 | Plant response rating, Deadnettle [10, 15]: 30 | Plant response rating, Deadnettle [10, 16]: 60 | Plant response rating (scale of 0 to 100), Deadnettle ([10]; Preemergence, 31 g ai/ha): 0 | Plant response rating, Deadnettle [10, 17]: 0 | Plant response rating, Deadnettle [10, 18]: 55 | Plant response rating, Deadnettle [10, 19]: 80 | Plant response rating, Deadnettle [10, 20]: 5 | Field Poppy plant response rating [11, 14]: 85 | Plant response rating, Field Poppy [11, 15]: 100 | Plant response rating, Field Poppy [11, 16]: 100 | Plant response rating (scale of 0 to 100), Field Poppy ([11]; Preemergence, 31 g ai/ha): 100 | Plant response rating, Field Poppy [11, 17]: 100 | Plant response rating, Field Poppy [11, 18]: 100 | Plant response rating, Field Poppy [11, 19]: 100 | Plant response rating, Field Poppy [11, 20]: 100 | Russian Thistle plant response rating [12, 14]: 65 | Plant response rating, Russian Thistle [12, 15]: 70 | Plant response rating, Russian Thistle [12, 16]: 70 | Plant response rating (scale of 0 to 100), Russian Thistle ([12]; Preemergence, 31 g ai/ha): 0 | Plant response rating, Russian Thistle [12, 17]: 10 | Plant response rating, Russian Thistle [12, 18]: 65 | Plant response rating, Russian Thistle [12, 19]: 75 | Plant response rating, Russian Thistle [12, 20]: 75 | Chickweed plant response rating [13, 14]: 95 | Plant response rating, Chickweed [13, 15]: 100 | Plant response rating, Chickweed [13, 16]: 100 | Plant response rating (scale of 0 to 100), Chickweed ([13]; Preemergence, 31 g ai/ha): 100 | Plant response rating, Chickweed [13, 17]: 100 | Plant response rating, Chickweed [13, 18]: 100 | Plant response rating, Chickweed [13, 19]: 100 | Plant response rating, Chickweed [13, 20]: 100
